Reference: patent US20140094512A1, “METHOD OF MODULATING THE DEGREE OF ADIPOSE TISSUE DEPOSITED INTRAMUSCULARLY” (priority 2012, published 2014)

Columns and labels:
3T3-L1 preadipocyte = experiment: retinoic acid induced inhibition of 3T3-L1-preadipocyte differentiation, Oil Red O staining of lipid droplets; type: cell-based, mouse; settings: for Oil Red O absorbance (OD minus blank), well1 / Oil Red O absorbance (OD minus blank), well2 / Oil Red O absorbance (OD minus blank), average: OD 492 nm; for Oil Red O absorbance (OD minus blank), well1 / Oil Red O absorbance (OD minus blank), well2: day 9; for Oil Red O absorbance (OD minus blank), average: day 9, control average 0.5263
Protocol: The effectiveness of the RAR alpha antagonists Compounds No. 2, 3 and 4 and the RAR pan antagonist Compound No. 1 in blocking the inhibitory effect of all-trans retinoic acid (ATRA) on 3T3-L1 preadipocyte differentiation was investigated.
In this experiment the “Oil Red O”-staining of lipid droplets is used as indicator of the degree of adipogenesis. After conveniently extraction of the dye from the lipid droplets the absorbance was measured with a microplate reader.
3T3-L1-cells (passage 7) of one flask (75 cm^2) were trypsinized by treating the adherent cells with 2 ml 0.25% Trypsin-EDTA. The reaction was stopped with fibroblast growth medium (DMEM/10% Newborn Calf Serum/1% Penicillin/Streptomycin) and 1 ml of this cellsuspension were added to each well of a 12-well-plate. Cells were incubated at 37° C./5% CO2 in an incubator.
One day after cells reach confluency the fibroblast growth medium was removed and adipogenesis initiation medium (DMEM/10% FBS/1 μM Dexamethasone/0.5 mM IBMX/1 μg/ml Insulin) was added into 2 wells (i.e., in duplicate) without further substances (control), into 2 wells with 0.1 μM ATRA+ alternative 1 μM of compound No. 4, Compound No. 2, Compound No. 3 and 1 into 2 wells with 0.1 μM ATRA.
After incubation for two days, the adipogenesis initiation medium was removed and 1.5 ml adipogenesis medium (DMEM/10% FBS/1 μg/ml Insulin) containing the substances as indicated above was added per well. After another three days of incubation, the medium was replaced by adipogenesis medium without any additional substances. The culture medium was replaced every 2 or 3 days.
Nine days after addition of adipogenesis initiation medium, the medium was removed from all wells. Cells were fixed and stained with Oil Red O as follows:
Fix the cells in 10% formalin in PBS, remove formalin, dry completely, wash with PBS, dry at room temperature; Prepare Oil red O working solution by diluting 3 parts Oil Red O stock solution with 2 parts dH2O; Add Oil red O working solution for 1 hour; Remove all Oil Red O and immediately add dH2O, wash with dH2O until water is colourless; Wash with 60% isopropanol, dry completely at room temperature; elute Oil red O by adding 60% isopropaniol/4% Triton X-100 solution for 1.5 hours; transfer to 96 well plate; measure absorption (optical density—OD) at 492 nm (Tecan Spectraflour plus)
The absorbance is reported in Table 2 and FIG. 1 as the difference of the observed OD of extracted dye at 492 nm and a blank well OD value.

bovine SVF cells = experiment: retinoic acid induced inhibition of the differentiation of bovine SVF cells to adipocytes, Oil Red O staining; type: cell-based; settings: for lipid accumulation compared with control cells / Oil Red O absorbance (OD minus blank), well1 / Oil Red O absorbance (OD minus blank), well2 / Oil Red O absorbance (OD minus blank), average: bovine SVF cells; for Oil Red O absorbance (OD minus blank), well1 / Oil Red O absorbance (OD minus blank), well2 / Oil Red O absorbance (OD minus blank), average: OD 530 nm, day 13; for Oil Red O absorbance (OD minus blank), average: control average 0.4465
Protocol: The efficiency of the RAR antagonists compounds No. 1, 3, 4 and 5 in blocking the antiadipogenic effect of ATRA on bovine cells was investigated. The cells used in this experiment were from a primary culture of the stromal-vascular fraction isolated from intramuscular fat of an Angus steer.
To assess the adipocyte differentiation state, the cells of a 12-well plate were stained with “Oil Red O” and after conveniently extraction of the dye from the lipid droplets the absorbance was measured with a microplate reader.
Cells of a bovine stromal-vascular fraction from intramuscular fat (passage 4) of one flask (75 cm^2) were trypsinized by treating the adherent cells with 2 ml 0.25% Trypsin-EDTA. The reaction was stopped with growth medium (DMEM, 1% (v/v) of antibiotic solution, 50 μg/ml gentamicin sulfate, 33 μM biotin, 17 μM D-pantothenate, 100 μM (+)-sodium L-ascorbate and 10% FCS heat inactivated) and 1.5 ml of this cell suspension were added to each well of a 12-well-plate. Cells were incubated at 37° C./5% CO2 in an incubator.
One day after cells reach confluency the growth medium was removed and adipogenesis initiation medium (growth medium/0.25 μM Dexamethasone/10 μg/ml Insulin/1 μM rosiglitazone) was added into 2 wells (i.e., in duplicate) without further compounds. Adipogenesis initiation medium additionally containing 0.1 μM ATRA was added into 2 wells without further compounds and alternative with 1 μM of compound No. 1, compound No. 3, compound No. 4 and compound No. 5 into 2 wells each of the 12-well plate.
After incubation for three days, the adipogenesis initiation medium was removed and 1.5 ml adipogenesis medium (growth medium/10 μg/ml Insulin/1 μM rosiglitazone) containing the substances as indicated above was added per well. The culture medium was replaced twice a week.
Thirteen days after addition of adipogenesis initiation medium the medium was removed and cells of the 12-well plate were fixed and stained with Oil Red O as previously described.
The absorbance is reported in Table 3 and FIG. 2 as the difference of the observed OD of extracted dye at 530 nm and a blank well OD value.

RARα = target: T1, RARα (Homo sapiens, UniProt P10276); experiment: luciferase based RA responsive reporter assay, RARα; type: cell-based; settings: antagonist
T1 sequence (P10276 1-462): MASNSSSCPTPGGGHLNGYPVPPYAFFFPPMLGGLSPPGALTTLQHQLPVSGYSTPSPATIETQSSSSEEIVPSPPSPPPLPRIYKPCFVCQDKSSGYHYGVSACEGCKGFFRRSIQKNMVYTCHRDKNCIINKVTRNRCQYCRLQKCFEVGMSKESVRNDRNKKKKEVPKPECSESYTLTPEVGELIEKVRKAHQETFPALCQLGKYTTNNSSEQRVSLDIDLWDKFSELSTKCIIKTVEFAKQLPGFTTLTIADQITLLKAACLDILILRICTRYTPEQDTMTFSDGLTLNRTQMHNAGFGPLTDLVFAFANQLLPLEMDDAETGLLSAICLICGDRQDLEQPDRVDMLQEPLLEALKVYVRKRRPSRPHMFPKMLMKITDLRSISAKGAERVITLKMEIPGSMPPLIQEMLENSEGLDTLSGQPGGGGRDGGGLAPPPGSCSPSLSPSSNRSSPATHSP

RARβ = target: T2, RARβ (Homo sapiens, UniProt P10826); experiment: luciferase based RA responsive reporter assay, RARβ; type: cell-based; settings: antagonist
T2 sequence (P10826 1-455): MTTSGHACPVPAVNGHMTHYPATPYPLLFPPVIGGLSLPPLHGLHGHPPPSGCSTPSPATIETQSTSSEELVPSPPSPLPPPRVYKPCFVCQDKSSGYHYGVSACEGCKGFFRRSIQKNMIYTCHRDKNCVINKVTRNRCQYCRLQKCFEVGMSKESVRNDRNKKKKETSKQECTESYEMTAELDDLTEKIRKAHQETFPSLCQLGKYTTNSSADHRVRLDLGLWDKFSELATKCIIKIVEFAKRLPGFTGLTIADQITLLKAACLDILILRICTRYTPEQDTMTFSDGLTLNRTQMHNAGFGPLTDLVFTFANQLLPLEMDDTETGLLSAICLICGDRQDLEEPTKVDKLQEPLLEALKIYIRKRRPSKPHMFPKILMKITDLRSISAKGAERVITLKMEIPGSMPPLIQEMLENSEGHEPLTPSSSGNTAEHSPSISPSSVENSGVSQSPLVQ

RARγ = target: T3, RARγ (Homo sapiens, UniProt P13631); experiment: luciferase based RA responsive reporter assay, RARγ; type: cell-based; settings: antagonist
T3 sequence (P13631 1-454): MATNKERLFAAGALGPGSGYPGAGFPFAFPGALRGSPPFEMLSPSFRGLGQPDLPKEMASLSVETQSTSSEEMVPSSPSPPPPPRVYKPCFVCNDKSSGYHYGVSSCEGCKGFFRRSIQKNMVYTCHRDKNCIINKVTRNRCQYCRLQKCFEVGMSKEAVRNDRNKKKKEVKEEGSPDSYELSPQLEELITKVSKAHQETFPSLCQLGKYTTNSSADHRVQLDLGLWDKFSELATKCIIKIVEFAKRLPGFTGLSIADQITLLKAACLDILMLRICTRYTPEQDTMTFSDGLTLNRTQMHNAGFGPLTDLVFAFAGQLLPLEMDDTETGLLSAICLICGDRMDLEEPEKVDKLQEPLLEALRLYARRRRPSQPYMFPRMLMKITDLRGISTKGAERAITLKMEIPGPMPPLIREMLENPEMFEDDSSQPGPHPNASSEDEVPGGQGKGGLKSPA

RARs = experiment: agonistic activity on RARs; type: cell-based

Cc1ccc(C2=CCC(C)(C)c3ccc(C#Cc4ccc(C(=O)O)cc4)cc32)cc1 [Compound No. 1]
Oil Red O absorbance (OD minus blank), well1 (3T3-L1 preadipocyte; 1 μM compound + 0.1 μM ATRA): 0.1736
Oil Red O absorbance (OD minus blank), well2 (3T3-L1 preadipocyte; 1 μM compound + 0.1 μM ATRA): 0.1792
Oil Red O absorbance (OD minus blank), average (3T3-L1 preadipocyte; 1 μM compound + 0.1 μM ATRA): 0.1764
lipid accumulation compared with control cells (bovine SVF cells; 1 μM compound + 0.1 μM ATRA): lipid accumulation of control cells is not reached
Oil Red O absorbance (OD minus blank), well1 (bovine SVF cells; 1 μM compound + 0.1 μM ATRA): 0.2849
Oil Red O absorbance (OD minus blank), well2 (bovine SVF cells; 1 μM compound + 0.1 μM ATRA): 0.3493
Oil Red O absorbance (OD minus blank), average (bovine SVF cells; 1 μM compound + 0.1 μM ATRA): 0.3171

CC1(C)CC=C(c2cnc3ccccc3c2)c2cc(C(=O)Nc3ccc(C(=O)O)cc3)ccc21 [Compound No. 3]
Oil Red O absorbance (OD minus blank), well1 (3T3-L1 preadipocyte; 1 μM compound + 0.1 μM ATRA): 0.3589
Oil Red O absorbance (OD minus blank), well2 (3T3-L1 preadipocyte; 1 μM compound + 0.1 μM ATRA): 0.2996
Oil Red O absorbance (OD minus blank), average (3T3-L1 preadipocyte; 1 μM compound + 0.1 μM ATRA): 0.3293
lipid accumulation compared with control cells (bovine SVF cells; 1 μM compound + 0.1 μM ATRA): lipid accumulation of control cells is not reached
Oil Red O absorbance (OD minus blank), well1 (bovine SVF cells; 1 μM compound + 0.1 μM ATRA): 0.3504
Oil Red O absorbance (OD minus blank), well2 (bovine SVF cells; 1 μM compound + 0.1 μM ATRA): 0.4044
Oil Red O absorbance (OD minus blank), average (bovine SVF cells; 1 μM compound + 0.1 μM ATRA): 0.3774

CC1=C(/C=C/C(C)=C/C=C/C(C)=C/C(=O)O)C(C)(C)CCC1 [ATRA, all-trans retinoic acid]
amount of differentiated lipid-containing adipocytes (3T3-L1 preadipocyte; ATRA 0.1 μM alone): significantly reduced
Oil Red O absorbance (OD minus blank), well1 (3T3-L1 preadipocyte; ATRA 0.1 μM alone): 0.0925
Oil Red O absorbance (OD minus blank), well2 (3T3-L1 preadipocyte; ATRA 0.1 μM alone): 0.0727
Oil Red O absorbance (OD minus blank), average (3T3-L1 preadipocyte; ATRA 0.1 μM alone): 0.0826
Oil Red O absorbance (OD minus blank), well1 (bovine SVF cells; ATRA 0.1 μM alone): 0.1409
Oil Red O absorbance (OD minus blank), well2 (bovine SVF cells; ATRA 0.1 μM alone): 0.1924
Oil Red O absorbance (OD minus blank), average (bovine SVF cells; ATRA 0.1 μM alone): 0.1667
amount of Oil Red O stainable lipid droplets (bovine SVF cells; ATRA 0.1 μM alone, bovine cells): clearly decreased

Cc1ccc(C2=CC(C)(C)Oc3c(Br)cc(C(=O)Nc4ccc(C(=O)O)cc4)cc32)cc1 [Compound No. 4, 4-[[8-bromo-2,2-dimethyl-4-(p-tolyl)chromene-6-carbonyl]amino]benzoic acid]
IC50 (RARα): 4 nM
IC50 (RARβ): 2980 nM
IC50 (RARγ): 2350 nM
agonistic activity on RARs (RARs): lacks any significant agonistic activity
Oil Red O absorbance (OD minus blank), well1 (3T3-L1 preadipocyte; 1 μM compound + 0.1 μM ATRA): 0.3361
Oil Red O absorbance (OD minus blank), well2 (3T3-L1 preadipocyte; 1 μM compound + 0.1 μM ATRA): 0.3571
Oil Red O absorbance (OD minus blank), average (3T3-L1 preadipocyte; 1 μM compound + 0.1 μM ATRA): 0.3466
Oil Red O absorbance (OD minus blank), well1 (bovine SVF cells; 1 μM compound + 0.1 μM ATRA): 0.5411
Oil Red O absorbance (OD minus blank), well2 (bovine SVF cells; 1 μM compound + 0.1 μM ATRA): 0.6229
Oil Red O absorbance (OD minus blank), average (bovine SVF cells; 1 μM compound + 0.1 μM ATRA): 0.5820

CN1c2cc3c(cc2N=C(c2ccc(C(=O)O)cc2)c2ccc4ccccc4c21)C(C)(C)CCC3(C)C [Compound No. 5]
lipid accumulation compared with control cells (bovine SVF cells; 1 μM compound + 0.1 μM ATRA): lipid accumulation of control cells is not reached
Oil Red O absorbance (OD minus blank), well1 (bovine SVF cells; 1 μM compound + 0.1 μM ATRA): 0.2915
Oil Red O absorbance (OD minus blank), well2 (bovine SVF cells; 1 μM compound + 0.1 μM ATRA): 0.3318
Oil Red O absorbance (OD minus blank), average (bovine SVF cells; 1 μM compound + 0.1 μM ATRA): 0.3117

Cc1ccc(C2=CC(C)(C)Oc3c(Br)cc(C(=O)Nc4cc(F)c(C(=O)O)c(F)c4)cc32)cc1 [Compound No. 2]
Oil Red O absorbance (OD minus blank), well1 (3T3-L1 preadipocyte; 1 μM compound + 0.1 μM ATRA): 0.2264
Oil Red O absorbance (OD minus blank), well2 (3T3-L1 preadipocyte; 1 μM compound + 0.1 μM ATRA): 0.2267
Oil Red O absorbance (OD minus blank), average (3T3-L1 preadipocyte; 1 μM compound + 0.1 μM ATRA): 0.2266
